Experimental data as given in paper PMC11220592 (Chemical Science, 2024).
Like-named read-outs stand apart in the source and are kept apart here.

Columns and labels:
SARS-CoV-2 nsp13 = SARS-CoV-2 nsp13 (Severe acute respiratory syndrome coronavirus 2, UniProt P0DTD1); assay type: binding
[1] = molecular target: T1, SARS-CoV-2 helicase (nsp13) (Severe acute respiratory syndrome coronavirus 2, UniProt P0DTD1)
[2] = molecular target: T1, SARS-CoV-2 helicase (nsp13); details: read-out: IC50 for unwinding activity
[3] = 100 nM nsp13, compound at 1 μM, 10 nM probe

Molecule	fluorescence intensity of BODIPY FL ATP-γ-S with nsp13 (SARS-CoV-2 nsp13; [3])	fluorescence intensity of BODIPY FL ATP-γ-S with nsp13 (SARS-CoV-2 nsp13)	other results
Nc1nc2nc[nH]c2c(=S)[nH]1 [6-TG, 6-thioguanine]	did not observe any apparent decrease in the fluorescence intensity	–	–
Nc1ccc([O-])c(=O)cc1.Nc1ccc([O-])c(=O)cc1.Nc1ccc([O-])c(=O)cc1.[Bi+3] [Bi(Tro-NH2)3, Bi(5-aminotropolonate)3]	–	–	fold lower ATPase IC50 than that of Bi(NAC)3 [1]: over 30 fold; IC50 ([1]; read-out: IC50 for ATPase): 30 nM; IC50 [2]: 360 ± 20 nM
N[C@@H](CCC(=O)N[C@@H](CS)C(=O)NCC(=O)O)C(=O)O [GSH, glutathione]	–	did not observe any apparent decrease in the fluorescence intensity	–
CC(C)c1cccc(=O)c(O)c1 [Hino, hinokitiol]	did not observe any apparent decrease in the fluorescence intensity	–	–
CC(=O)N[C@@H](CS)C(=O)O [NAC, N-acetyl cysteine]	did not observe any apparent decrease in the fluorescence intensity	–	–
colloidal bismuth subcitrate [CBS]	–	decreased fluorescence intensities	–
